Target: Prodan-G-actin (Oryctolagus cuniculus, UniProt P68135)
Assay: Competition-binding assay with GS1 and CapG on Prodan-G-actin
Parameters: F-actin is purified from rabbit skeletal muscle using a standard protocol; from tissue; host or cells: actin from rabbit skeletal muscle; CapG and GS1 expressed in E. coli M15; species or system rabbit
Method: FIG. 4: (A) CapG: (a), Prodan-G-actin (100 nM), (b), Prodan-G-actin-CapG; (c), same as (b) in the presence of 0.2 μM KabC; (B); GS1: (a), Prodan-G-actin 100 nM; (b), Prodan-G-actin-GS1; (c), same as (b) in the presence of 0.2 μM KabC.
Characterization of actin binding proteins: The actin-binding properties of the ABPs used in this study are evaluated from changes in the fluorescence emission spectrum of Prodan-actin and actin polymerization assays as described by Marriott et al (1988).
Trisoxazolemacrolides specifically compete with GS1 for the (+)-end binding site on actin. Gelsolin, a monomeric 80 kD cytoskeleton protein composed of six domains interacts with actin filaments in a complex, Ca^2+-dependent manner (Janmey et al, 1985; Burtnick et al, 1997). Gelsolin exerts two major effects once bound to an actin filament: first it severs the filament and second it remains tightly bound to the severed (+)-end and serves to block, or cap, further growth. […] Structural analyses of G-actin complexes with GS1 (McLaughlin et al, 1993) and KabC show these unrelated molecules bind to G-actin through common contact sites that include a patch of hydrophobic residues on the surface between sub-domains 1 and 3 and within the cleft that forms between the interface of sub-domains 1 and 3 (McLaughlin et al, 1993;). GS1 binding to Prodan-G-actin shifts the average energy of the fluorescence emission to the red and is accompanied by a decrease in the quantum yield (FIG. 4A) but not to the extent seen in the KabC-G-actin complex (FIG. 2).
Trisoxazolemacrolides specifically compete with CapG for the (+)-end binding site on actin. CapG, a Ca^2+-dependent, (+)-end actin filament capping protein, is found at high levels in macrophage cells where it regulates membrane ruffling and cell protrusions associated with phagocytosis and motility (Botelho et. al., 2000). […] The Ca^2+-dependent binding of CapG to Prodan-G-actin is accompanied by a dramatic blue-shift in the emission spectrum and an increase in quantum yield (FIG. 4B, curve b). The difference in fluorescence emission spectra between free and CapG-bound Prodan-G-actin is used to quantify the parameters for this binding reaction. The G-actin-CapG complex exists as a 1:1 complex and has a dissociation constant of 100 nM (data not shown). […] This conclusion is consistent with a comparison of high-resolution structures of G-actin with GS1 and KabC and a preliminary analysis of a 2.8 Angstrom structure of a CapG mutant (Vorobiev et al, PDB database, 2002). […] However the emission properties of the CapG-Prodan-G-actin complex are unaffected by the binding of LatA, DNAse and thymosin β4 (Tβ4), which is consistent with some structural data showing that these sequestering molecules bind closer to the ATP pocket and DNAse binding loop (Kabsch et al, 1990).

How did the “displacement of CapG from Prodan-G-actin” value turn out when Kabiramide C [KabC] was run?
The value was “displace CapG from Prodan-G-actin in a Ca^2+-independent manner”.

And the “stability of final G-actin-KabC complex” value (dilution and competition-binding studies)?
The value was “extremely stable and does not dissociate at a concentration below the equilibrium constant”.

What about the “displacement of GS1 from Prodan-G-actin” value (presence of EGTA) of the same substance?
Its value is “displaces GS1”.

— US7301020B2, “Macrolide analogs and methods for identifying same” (priority 2003, dated 2007)
